Test results published in patent US20250262201A1, “COMPOUNDS AND METHODS USEFUL FOR STABILIZING PHENYLALANINE HYDROXYLASE MUTATIONS” (Agios Pharmaceuticals, Inc., priority 2022, published 2025).

target: T1, human PAH with the R408W mutation (Homo sapiens, UniProt P00439, R408W); test: Cell Based Phenylalanine Flux Assay; settings: A375 cells expressing human R408W PAH; 24 hrs compound incubation; 13C-Tyrosine by LC-MS; average where tested multiple times; read-out: AC50
T1 construct: expressed in transfected cells
T1 sequence (P00439 1-452 R408W): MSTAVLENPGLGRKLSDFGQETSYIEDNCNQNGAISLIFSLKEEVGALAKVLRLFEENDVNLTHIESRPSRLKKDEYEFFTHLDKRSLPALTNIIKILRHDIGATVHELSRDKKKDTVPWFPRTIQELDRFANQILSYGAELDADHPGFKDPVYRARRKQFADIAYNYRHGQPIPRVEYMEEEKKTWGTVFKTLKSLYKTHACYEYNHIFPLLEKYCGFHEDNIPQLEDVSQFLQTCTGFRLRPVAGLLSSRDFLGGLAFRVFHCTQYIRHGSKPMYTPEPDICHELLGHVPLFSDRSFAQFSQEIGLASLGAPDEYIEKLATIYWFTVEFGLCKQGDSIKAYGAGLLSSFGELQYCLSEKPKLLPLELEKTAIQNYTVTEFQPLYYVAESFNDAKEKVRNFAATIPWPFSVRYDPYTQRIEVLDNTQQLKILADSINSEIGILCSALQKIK

Row | Compound | AC50 [µM]
1 | O=C(c1cnco1)N1CCc2[nH]cnc2[C@@H]1c1ncc2ccccc2n1 [Example 150, (R)-oxazol-5-yl(4-(quinazolin-2-yl)-6,7-dihydro-1H-imidazo[4,5-c]pyridin-5(4H)-yl)methanone] | > 5
2 | O=C(c1nnc(C2CC(F)(F)C2)o1)N1CCc2[nH]cnc2[C@H]1c1ncc2ccccc2n1 [Example 151, (S)-(5-(3,3-difluorocyclobutyl)-1,3,4-oxadiazol-2-yl)(4-(quinazolin-2-yl)-6,7-dihydro-1H-imidazo[4,5-c]pyridin-5(4H)-yl)methanone] | 0.5 to 1
3 | O=C(c1nnc(C2CC(F)(F)C2)o1)N1CCc2[nH]cnc2[C@@H]1c1ncc2ccccc2n1 [Example 152, (R)-(5-(3,3-difluorocyclobutyl)-1,3,4-oxadiazol-2-yl)(4-(quinazolin-2-yl)-6,7-dihydro-1H-imidazo[4,5-c]pyridin-5(4H)-yl)methanone] | > 5
4 | COCc1ccc2c(C(=O)N3CCc4[nH]cnc4[C@H]3c3ncc4ccccc4n3)cnn2c1 [Example 153] | 0.5 to 1
5 | COCc1ccc2c(C(=O)N3CCc4[nH]cnc4[C@@H]3c3ncc4ccccc4n3)cnn2c1 [Example 154, (R)-(6-(methoxymethyl)pyrazolo[1,5-a]pyridin-3-yl)(4-(quinazolin-2-yl)-6,7-dihydro-1H-imidazo[4,5-c]pyridin-5(4H)-yl)methanone] | > 5
6 | CN(C)Cc1ccc2c(C(=O)N3CCc4[nH]cnc4[C@H]3c3ncc4ccccc4n3)cnn2c1 [Example 155, (S)-(6-((dimethylamino)methyl)pyrazolo[1,5-a]pyridin-3-yl)(4-(quinazolin-2-yl)-6,7-dihydro-1H-imidazo[4,5-c]pyridin-5(4H)-yl)methanone] | 0.5 to 1
7 | CN(C)Cc1ccc2c(C(=O)N3CCc4[nH]cnc4[C@@H]3c3ncc4ccccc4n3)cnn2c1 [Example 156, (R)-(6-((dimethylamino)methyl)pyrazolo[1,5-a]pyridin-3-yl)(4-(quinazolin-2-yl)-6,7-dihydro-1H-imidazo[4,5-c]pyridin-5(4H)-yl)methanone] | > 5
8 | O=C(c1cnc(-c2ccccn2)o1)N1CCc2[nH]cnc2[C@@H]1c1ncc2ccccc2n1 [Example 157, (R)-(2-(pyridin-2-yl)oxazol-5-yl)(4-(quinazolin-2-yl)-6,7-dihydro-1H-imidazo[4,5-c]pyridin-5(4H)-yl)methanone] | > 5
9 | O=C(c1cnc(-c2ccccn2)o1)N1CCc2[nH]cnc2[C@H]1c1ncc2ccccc2n1 [Example 158, (S)-(2-(pyridin-2-yl)oxazol-5-yl)(4-(quinazolin-2-yl)-6,7-dihydro-1H-imidazo[4,5-c]pyridin-5(4H)-yl)methanone] | 0.5 to 1
10 | O=C(c1nnc(N2CCC(F)CC2)o1)N1CCc2[nH]cnc2[C@H]1c1ncc2ccccc2n1 [Example 159, (S)-(5-(4-fluoropiperidin-1-yl)-1,3,4-oxadiazol-2-yl)(4-(quinazolin-2-yl)-6,7-dihydro-1H-imidazo[4,5-c]pyridin-5(4H)-yl)methanone] | 1 to 5
11 | O=C(c1nnc(N2CCC(F)CC2)o1)N1CCc2[nH]cnc2[C@@H]1c1ncc2ccccc2n1 [Example 160, (R)-(5-(4-fluoropiperidin-1-yl)-1,3,4-oxadiazol-2-yl)(4-(quinazolin-2-yl)-6,7-dihydro-1H-imidazo[4,5-c]pyridin-5(4H)-yl)methanone] | > 5
12 | CC(C)(F)c1nnc(C(=O)N2CCc3[nH]cnc3[C@H]2c2ncc3ccccc3n2)o1 [Example 161, (S)-(5-(2-fluoropropan-2-yl)-1,3,4-oxadiazol-2-yl)(4-(quinazolin-2-yl)-6,7-dihydro-1H-imidazo[4,5-c]pyridin-5(4H)-yl)methanone] | 0.5 to 1
13 | CC(C)(F)c1nnc(C(=O)N2CCc3[nH]cnc3[C@@H]2c2ncc3ccccc3n2)o1 [Example 162, (R)-(5-(2-fluoropropan-2-yl)-1,3-oxadiazol-2-yl)(4-(quinazolin-2-yl)-6,7-dihydro-1H-imidazo[4,5-c]pyridin-5(4H)-yl)methanone] | > 5
14 | O=C(c1nnc(-c2ncccc2F)o1)N1CCc2[nH]cnc2[C@H]1c1ncc2ccccc2n1 [Example 163, (S)-(5-(3-fluoropyridin-2-yl)-1,3,4-oxadiazol-2-yl)(4-(quinazolin-2-yl)-6,7-dihydro-1H-imidazo[4,5-c]pyridin-5(4H)-yl)methanone] | < 0.5
15 | O=C(c1nnc(-c2ncccc2F)o1)N1CCc2[nH]cnc2[C@@H]1c1ncc2ccccc2n1 [Example 164, (R)-(5-(3-fluoropyridin-2-yl)-1,3,4-oxadiazol-2-yl)(4-(quinazolin-2-yl)-6,7-dihydro-1H-imidazo[4,5-c]pyridin-5(4H)-yl)methanone] | > 5
16 | Cn1ccc(-c2nnc(C(=O)N3CCc4[nH]cnc4[C@H]3c3ncc4ccccc4n3)o2)n1 [Example 165, (S)-(5-(1-methyl-1H-pyrazol-3-yl)-1,3,4-oxadiazol-2-yl)(4-(quinazolin-2-yl)-6,7-dihydro-1H-imidazo[4,5-c]pyridin-5(4H)-yl)methanone] | 0.5 to 1
17 | Cn1ccc(-c2nnc(C(=O)N3CCc4[nH]cnc4[C@@H]3c3ncc4ccccc4n3)o2)n1 [Example 166, (R)-(5-(1-methyl-1H-pyrazol-3-yl)-1,3,4-oxadiazol-2-yl)(4-(quinazolin-2-yl)-6,7-dihydro-1H-imidazo[4,5-c]pyridin-5(4H)-yl)methanone] | 1 to 5
18 | O=C(c1nnc(-c2ccc(F)cn2)o1)N1CCc2[nH]cnc2[C@@H]1c1ncc2ccccc2n1 [Example 167, (R)-(5-(5-fluoropyridin-2-yl)-1,3,4-oxadiazol-2-yl)(4-(quinazolin-2-yl)-6,7-dihydro-1H-imidazo[4,5-c]pyridin-5(4H)-yl)methanone] | 1 to 5
19 | O=C(c1nnc(-c2ccc(F)cn2)o1)N1CCc2[nH]cnc2[C@H]1c1ncc2ccccc2n1 [Example 168, (S)-(5-(5-fluoropyridin-2-yl)-1,3,4-oxadiazol-2-yl)(4-(quinazolin-2-yl)-6,7-dihydro-1H-imidazo[4,5-c]pyridin-5(4H)-yl)methanone] | < 0.5
20 | O=C(c1nnc(-c2ccc(C(F)(F)F)cn2)o1)N1CCc2[nH]cnc2[C@@H]1c1ncc2ccccc2n1 [Example 169, (R)-(4-(quinazolin-2-yl)-6,7-dihydro-1H-imidazo[4,5-c]pyridin-5(4H)-yl)(5-(5-(trifluoromethyl)pyridin-2-yl)-1,3,4-oxadiazol-2-yl)methanone] | 1 to 5
21 | O=C(c1nnc(-c2ccc(C(F)(F)F)cn2)o1)N1CCc2[nH]cnc2[C@H]1c1ncc2ccccc2n1 [Example 170, (S)-(4-(quinazolin-2-yl)-6,7-dihydro-1H-imidazo[4,5-c]pyridin-5(4H)-yl)(5-(5-(trifluoromethyl)pyridin-2-yl)-1,3,4-oxadiazol-2-yl)methanone] | 0.5 to 1
22 | Cc1ccc(-c2nnc(C(=O)N3CCc4[nH]cnc4[C@H]3c3ncc4ccccc4n3)o2)nc1 [Example 171, (S)-(5-(5-methylpyridin-2-yl)-1,3,4-oxadiazol-2-yl)(4-(quinazolin-2-yl)-6,7-dihydro-1H-imidazo[4,5-c]pyridin-5(4H)-yl)methanone] | < 0.5
23 | Cc1ccc(-c2nnc(C(=O)N3CCc4[nH]cnc4[C@@H]3c3ncc4ccccc4n3)o2)nc1 [Example 172, (R)-(5-(5-methylpyridin-2-yl)-1,3,4-oxadiazol-2-yl)(4-(quinazolin-2-yl)-6,7-dihydro-1H-imidazo[4,5-c]pyridin-5(4H)-yl)methanone] | 1 to 5
24 | O=C(c1nnc(-c2cc(C(F)(F)F)ccn2)o1)N1CCc2[nH]cnc2[C@H]1c1ncc2ccccc2n1 [Example 173, (S)-(4-(quinazolin-2-yl)-6,7-dihydro-1H-imidazo[4,5-c]pyridin-5(4H)-yl)(5-(4-(trifluoromethyl)pyridin-2-yl)-1,3,4-oxadiazol-2-yl)methanone] | < 0.5
25 | O=C(c1nnc(-c2cc(C(F)(F)F)ccn2)o1)N1CCc2[nH]cnc2[C@@H]1c1ncc2ccccc2n1 [Example 174, (R)-(4-(quinazolin-2-yl)-6,7-dihydro-1H-imidazo[4,5-c]pyridin-5(4H)-yl)(5-(4-(trifluoromethyl)pyridin-2-yl)-1,3,4-oxadiazol-2-yl)methanone] | 1 to 5
26 | O=C(c1nnc(-c2cc[nH]n2)o1)N1CCc2[nH]cnc2[C@H]1c1ncc2ccccc2n1 [Example 175, (S)-(5-(1H-pyrazol-3-yl)-1,3,4-oxadiazol-2-yl)(4-(quinazolin-2-yl)-6,7-dihydro-1H-imidazo[4,5-c]pyridin-5(4H)-yl)methanone] | 0.5 to 1
27 | O=C(c1nnc(-c2cc[nH]n2)o1)N1CCc2[nH]cnc2[C@@H]1c1ncc2ccccc2n1 [Example 176, (R)-(5-(1H-pyrazol-3-yl)-1,3,4-oxadiazol-2-yl)(4-(quinazolin-2-yl)-6,7-dihydro-1H-imidazo[4,5-c]pyridin-5(4H)-yl)methanone] | > 5
28 | O=C(c1nnc(-c2cccnc2)o1)N1CCc2[nH]cnc2[C@H]1c1ncc2ccccc2n1 [Example 177, (S)-(5-(pyridin-3-yl)-1,3,4-oxadiazol-2-yl)(4-(quinazolin-2-yl)-6,7-dihydro-1H-imidazo[4,5-c]pyridin-5(4H)-yl)methanone] | < 0.5
29 | O=C(c1nnc(-c2cccnc2)o1)N1CCc2[nH]cnc2[C@@H]1c1ncc2ccccc2n1 [Example 178, (R)-(5-(pyridin-3-yl)-1,3,4-oxadiazol-2-yl)(4-(quinazolin-2-yl)-6,7-dihydro-1H-imidazo[4,5-c]pyridin-5(4H)-yl)methanone] | 1 to 5
